Values of other authors as cited in patent US20080188497A1, “Dipyridamole, Acetylsalicylic Acid, and Angiotensin II Antagonist Pharmaceutical Compositions” (Boehringer Ingelheim International GmbH, priority 2003, published 2008).

Conditions: ESPS-2 clinical study; compared with low-dose aspirin / aspirin alone

OCCN(CCO)c1nc(N2CCCCC2)c2nc(N(CCO)CCO)nc(N3CCCCC3)c2n1 [dipyridamole, 2,6-bis(diethanolamino)-4,8-dipiperidinopyrimido[5,4-d]pyrimidine]
reduction of stroke risk: as effective as low-dose aspirin
